The results in this text go back to US9834567B1, “Crystalline form of cefamandole nafate compound, preparation and preparing method thereof” (TIANJIN UNIVERSITY, priority 2014, dated 2017).

Data set [1] deals with Rabbits. The data set can be described thus: Toxic reaction test: 15-day daily intravenous injection in rabbits (renal). Type of data set: in vivo. The note with it: 250 mg/kg intravenously daily for 15 days. How it is done:
(§1) The novel crystalline form of Cefamandole Nafate compound of the present invention was tested by toxic reaction tests shown as follows (taking the crystalline form of Cefamandole Nafate obtained in Example 1 for example):
Rabbits were divided into 2 groups, every 4 animals in each group, and daily intravenously injected with 250 mg/kg Cefamandole Nafate for 15 days, while the control group was injected with 5 ml saline per day.

Data set [2] relates to Rabbits. Type of data set: in vivo. How it is done:
as §1
Rabbits were injected with 0.4˜2.1 g of Cefamandole Nafate each time with the interval of 15 min, and recording the changes of blood pressure and electrocardiogram.

Data set [3] can be described thus: Toxic reaction test: acute toxicity (LD50) in rats. The note with it: rat, in vivo, intravenous injection. How it is done: as §1
(§2) Mice were divided into 4 dose groups by weights, every 10 animals in each group, and administered by intravenous injection, subcutaneous injection and intraperitoneal injection with a concentration of […].

Data set [4] in a line: Storage stability of the crystalline product. Type of data set: physicochemical. How it is done: Said method has the following advantageous effects: simple procedure, easy operation, and low energy consumption. The prepared product has a melting range of 160˜170° C. with good thermal stability, and is conducive to the long-term preservation. […] The product is easy to crush and processed into dosage forms of a pharmaceutical composition, as well as low cost, and easier to implement on commercial and industrial scale.

Data set [5] in a line: Toxic reaction test: acute toxicity (LD50) in mice. To be noted: mouse, in vivo. How it is done:
as §1, §2

Setting [6] is: anesthetized rabbits, intravenous injection, 0.4~2.1 g each time.
Setting [7] is: rabbits, dosage up to 4800 mg/kg.

In general, LD50 refers to the dose expected to kill half of the subjects tested. A higher LD50 goes with a less toxic substance.

As to `Cn1nnnc1SCC1=C(C(=O)[O-])N2C(=O)[C@@H](NC(=O)[C@H](OC=O)c3ccccc3)[C@H]2SC1.[Na+]` [Cefamandole Nafate, (6R, 7R)-7-R-(2-formyloxy-2-phenylacetamide)-3-[[(1-methyl-1H-tetrazol-5-yl)thio]methyl]-8-oxo-5-thia-1-azabicyclo [4.2.0] oct-2-ene-2-carboxylate sodium salt], in the data set on Rabbits [1], the renal tissue concentration result was “increased” and the renal toxicity entry is listed as “low”. In the data set on Rabbits [2] (setting [6]), the breathing entry was “deepened and accelerated”; the “electrocardiogram and heart rate” value is “did not change significantly”. In addition, the death entry with Rabbits [2] (rabbits, dosage further increased above 4800 mg/kg) is reported as “death occurred”. Besides, in the data set with Rabbits [2] (setting [7]), the blood pressure result is on record as “significantly decreased”; the electrocardiogram entry is “prolonged in P-R interval, depressed in ST segment, and ventricular arrhythmias”; the respiration result is listed as “inhibited”.

Regarding `Cn1nnnc1SCC1=C(C(=O)[O-])N2C(=O)[C@@H](NC(=O)[C@H](OC=O)c3ccccc3)[C@H]2SC1.[Na+]` [Example 1, (6R, 7R)-7-R-(2-formyloxy-2-phenylacetamide)-3-[[(1-methyl-1H-tetrazol-5-yl)thio]methyl]-8-oxo-5-thia-1-azabicyclo [4.2.0] oct-2-ene-2-carboxylate sodium salt], the 50% lethal dose (LD50) is 3420 mg/kg in data set [3]; 4220 mg/kg in data set [5] (intravenous injection); 4500 mg/kg in data set [5] (ip, intraperitoneal injection); 7260 mg/kg in data set [5] (sc, subcutaneous injection). In addition, the “degradation after placing for a long time” value in data set [4] was “without degradation”.
